Entries after “also recorded” stand apart in the source; their conditions may differ. Where two headings read alike, the source gives them in different places.
Assays:
[1] = tested on: TP receptor; conditions: cited from earlier work
[2] = molecular target: T1, EP2 receptor (Homo sapiens, UniProt P35408); assay: [3H]PGE2 binding (competition) assay, membranes of COS-M6 cells transfected with EP2; design: full-length human EP2 cDNA was isolated; This 1.958 kb cDNA clone encodes a 488-amino acid protein; expressed in transfected cells; host or cells: COS-M6 cells (pcDNAIamp plasmid, DEAE-dextran), 100,000 x g membrane fraction; conditions: for rank order of potency for prostaglandins and related analogs / activity at EP2 in words: competition with [3H]PGE2
T1 sequence (P35408 whole entry): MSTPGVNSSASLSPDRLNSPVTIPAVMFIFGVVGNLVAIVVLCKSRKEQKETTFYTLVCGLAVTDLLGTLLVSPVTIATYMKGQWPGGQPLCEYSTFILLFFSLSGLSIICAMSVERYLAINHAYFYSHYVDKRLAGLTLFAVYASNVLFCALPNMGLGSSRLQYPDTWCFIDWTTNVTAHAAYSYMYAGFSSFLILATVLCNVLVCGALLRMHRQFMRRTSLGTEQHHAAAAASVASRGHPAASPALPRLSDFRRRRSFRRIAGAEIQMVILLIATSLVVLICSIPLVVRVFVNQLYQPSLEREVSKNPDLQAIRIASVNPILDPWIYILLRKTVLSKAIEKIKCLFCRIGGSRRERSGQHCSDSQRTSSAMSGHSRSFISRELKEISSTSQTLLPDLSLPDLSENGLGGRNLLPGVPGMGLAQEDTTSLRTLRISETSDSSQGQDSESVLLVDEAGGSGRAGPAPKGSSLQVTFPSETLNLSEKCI
Experimental: The cells were maintained in culture for 72 h, then harvested and membranes prepared by differential centrifugation (1000×g for 10 min, then 100,000×g for 30 min) following lysis of the cells by nitrogen cavitation. […] Incubations were conducted for 45 min at 30° C. prior to separation of the bound and free radioligand by rapid filtration through Whatman GF/B filters presoaked at 4° C. in washing buffer ([…] MES/KOH (pH 6.0) containing 0.01% bovine serum albumin).

[3] = tested on: IP receptor; conditions: cited from earlier work
[4] = tested on: control oocytes (CFTR alone or CFTR plus antisense EP2 cDNA injected); assay: CFTR-mediated Cl- current in control oocytes (CFTR alone or CFTR plus antisense EP2 cDNA injected); format: cell-based, Xenopus laevis
[5] = molecular target: T1, EP2 receptor; assay: PGE2-induced CFTR-mediated Cl- current in Xenopus oocytes injected with EP2 plus CFTR cDNA; format: cell-based
Experimental: Oocytes were taken from adult females of Xenopus laevis using standard surgical procedure (Colman, A., 1984 In: Transcription and Translation--A Practical Approach, IRL Press). To remove follicle cells, oocytes were treated for 2-3 h with freshly made collagenase (2 mg/ml, type 2, Worthington Biochemical Corp., Freehold, N.J.) in Ca^2+ -free ND96 solution (ND96 in mM: NaCl 96, KCl 2, MgCl2 1, HEPES 5, Na-pyruvate 2.5, theophylline 0.5 gentamicin […], +1.8 CaCl2, pH 7.6). Defolliculated stage 5-6 oocytes were selected and maintained in ND96 solution. Oocyte nuclei were injected with 1.6 ng of pcDNAIamp-EP2 plus 2.5 ng of pcDNAIamp-CFTR and then incubated at 18° C. for 48 h before challenge with agonist. CFTR (cystic fibrosis transmembrane regulator, a cAMP dependent Cl^- channel) was co-expressed with EP2 receptor in these oocytes and served as a reporter of changes in intracellular cAMP levels. Functional activity was determined by measurement of PGE2-induced CFTR-mediated Cl^- current. An oocyte was placed in a 0.5 ml perfusion chamber and voltage clamped at -60 mV (with microelectrodes of 0.5-2.0 MW resistance filled with 3M KCl) using a Turbo TEC01C amplifier (NP1 Instruments, Germany). Ligand-containing solution was perfused and the current response was recorded.

[6] = tested on: EP3 receptor; conditions: cited from earlier work
[7] = tested on: EP1 receptor; conditions: cited from earlier work
[8] = tested on: EP2 receptor; conditions: cited from earlier work
[9] = tested on: EP2 receptor; conditions: cited from earlier work; remark: listed apart in the source
[10] = CFTR alone or CFTR plus antisense EP2 cDNA injected

SMILES: CCCCC[C@H](O)/C=C/[C@@H]1[C@@H](C/C=C\CCCC(=O)O)[C@H]2CO[C@@H]1C2 [U46619]
- potency at the TP receptor, stable thromboxane analog [1]: comparable potency
- rank order of potency for prostaglandins and related analogs [2]: PGE2=PGE1>>phenyl-trinor PGE2>iloprost>PGF2α >PGD2≈U46619

SMILES: CCCCC[C@H](O)/C=C/[C@H]1[C@H](O)CC(=O)[C@@H]1CCCCCCC(=O)O [PGE1]
- rank order of potency for prostaglandins and related analogs [2]: PGE2=PGE1>>phenyl-trinor PGE2>iloprost>PGF2α >PGD2≈U46619
- IC50 ([2]; read-out: IC50 values in competition assays): 0.001 µM

SMILES: O=C(O)CCCCCC[C@H]1C(=O)CC[C@@H]1/C=C/[C@@H](O)COc1ccccc1 [MB28767]
- potency at EP2 relative to EP3 (fold less potent at EP2 than EP3) ([2]; EP2 versus EP3): approximately 30 fold

SMILES: CCCCC(C)(O)C/C=C/[C@H]1[C@H](O)CC(=O)[C@@H]1CCCCCCC(=O)OC (mixture of isomers) [Misoprostol]
- IC50 ([2]; read-out: IC50): 6.03 µM

SMILES: CC#CCC(C)[C@H](O)/C=C/[C@@H]1[C@H]2C/C(=C/CCCC(=O)O)C[C@H]2C[C@H]1O (stereo partly drawn) [iloprost]
- potency at the IP receptor, stable prostacyclin analog [3]: comparable potency
- rank order of potency for prostaglandins and related analogs [2]: PGE2=PGE1>>phenyl-trinor PGE2>iloprost>PGF2α >PGD2≈U46619

SMILES: CCCC1([C@H](O)C/C=C/[C@H]2[C@H](O)CC(=O)[C@@H]2CCCCCCC(=O)OC)CCC1 [butaprost]
- activity at EP2 in words [2]: relatively inactive
- IC50 ([2]; read-out: IC50): 30 µM

SMILES: CC(C)Oc1ccc2c(=O)c3cc(C(=O)O)ccc3oc2c1 [AH6809]
- activity at EP2 in words [2]: essentially inactive

SMILES: CC(=O)NNC(=O)N1Cc2ccccc2Oc2ccc(Cl)cc21 [SC19220]
- activity at EP2 in words [2]: essentially inactive

SMILES: CC(C)Cn1c(=O)n(C)c(=O)c2[nH]cnc21 [IBMX]
- CFTR-mediated Cl- current ([4]; CFTR + anti-sense hEP2 cDNA injected oocytes): IBMX-induced, CFTR-mediated Cl^- current

SMILES: CCCCC[C@H](O)/C=C/[C@@H]1[C@@H](C/C=C\CCCC(=O)O)[C@@H](O)C[C@H]1O [PGF2α]
- current response compared with PGE2 ([5]; 1 μM PGF2α): much smaller
- rank order of potency for prostaglandins and related analogs [2]: PGE2=PGE1>>phenyl-trinor PGE2>iloprost>PGF2α >PGD2≈U46619
- response of control oocytes [4, 10]: absent

SMILES: CCCCC[C@H](O)/C=C/[C@H]1C(=O)C[C@H](O)[C@@H]1C/C=C\CCCC(=O)O [PGD2]
- rank order of potency for prostaglandins and related analogs [2]: PGE2=PGE1>>phenyl-trinor PGE2>iloprost>PGF2α >PGD2≈U46619

SMILES: O=C(O)CCCC=CCC1C(=O)CC(O)C1C=CC(O)CCc1ccccc1 (stereo not drawn) [phenyl-trinor PGE2, 17-pheyyl-trinor PGE2]
- rank order of potency for prostaglandins and related analogs [2]: PGE2=PGE1>>phenyl-trinor PGE2>iloprost>PGF2α >PGD2≈U46619

SMILES: CCCCC[C@H](O)/C=C/[C@H]1[C@H](O)CC(=O)[C@@H]1C/C=C\CCCC(=O)O [PGE2, prostaglandin E2]
- affinity [6]: high affinity
- affinity [7]: high affinity
- current response ([5]; perfusion of 1 nM, voltage clamp -60 mV, 1.6 ng EP2 plus 2.5 ng CFTR cDNA): inward cAMP-dependent Cl^- current; also recorded: prominent current responses
- affinity [8]: high affinity
- intracellular cAMP levels [9]: increase in intracellular cAMP levels
- rank order of potency for prostaglandins and related analogs [2]: PGE2=PGE1>>phenyl-trinor PGE2>iloprost>PGF2α >PGD2≈U46619
- response of control oocytes ([4]; 1 μM, CFTR + anti-sense hEP2 cDNA): lack of response
- response of control oocytes ([4]; 3 μM, CFTR + anti-sense hEP2 cDNA): lack of response
- response of control oocytes [4, 10]: absent
